Experimental data from publication PMC10480608 (Heliyon, 2023).

Tests used:
[1] = test system: MCF-7 (human breast adenocarcinoma); test: MTT cytotoxicity assay, MCF-7; assay type: cell-based; conditions: Homo sapiens, MCF7, 72 h, read-out: IC50 ± SD, MCF7
[2] = test system: HepG2 (hepatocellular carcinoma); test: MTT cytotoxicity assay, HepG2; assay type: cell-based, human; conditions: Homo sapiens, HepG2, 72 h, read-out: IC50 ± SD, HEPG-2
[3] = test system: PC3 (human prostate carcinoma); test: MTT cytotoxicity assay, PC3; assay type: cell-based; conditions: 72 h, read-out: IC50 ± SD, PC-3
[4] = test system: normal human dermal/fibroblasts; test: MTT cytotoxicity assay, normal fibroblasts; assay type: cell-based; conditions: Homo sapiens, Fibroblast, 72 h, read-out: IC50 ± SD, Fibro dental
[5] = test system: DU145 prostate cancer cells; test: MTT cytotoxicity assay, DU145; assay type: cell-based, human; conditions: Homo sapiens, DU-145, read-out: IC50 ± SD, DU145
[6] = test system: MDA-231 breast cancer cells; test: MTT cytotoxicity assay, MDA-231; assay type: cell-based, human; conditions: Homo sapiens, MDA-MB-231, read-out: IC50 ± SD, MDA-231

SMILES | IC50 [1] [µM] | IC50 [2] [µM] | IC50 [3] [µM] | IC50 [4] [µM] | IC50 [5] [µM] | IC50 [6] [µM]
Cc1nc([N+](=O)[O-])cn1Cc1ccccc1 [Compound 2, N1-benzyl-2-methyl-4-nitroimidazole] | 68 ± 20 | – | – | – | – | –
Cc1nc([N+](=O)[O-])c(Br)n1Cc1ccccc1 [Compound 3, 5-bromo-N1-benzyl-2-methyl-4-nitroimidazole] | – | > 500 | > 500 | > 500 | – | –
C#CCN1CCN(c2c([N+](=O)[O-])nc(C)n2Cc2ccccc2)CC1 [Compound 5, 1-(N1-benzyl-2-methyl-4-nitro-imidazole-5-yl)-4-(prop-2-yn-1-yl)piperazine] | 84 ± 2 | – | – | > 500 | – | –
Cc1nc([N+](=O)[O-])c(N2CCN(Cc3cn(Cc4ccccc4)nn3)CC2)n1Cc1ccccc1 [Compound 9a, 1-((N1-benzyl-1H-1,2,3-triazol-4-yl)methyl)-4-(N1-benzyl-2-methyl-4-nitro-imidazole-5-yl)piperazine] | 55 ± 40 | – | – | > 500 | – | –
Cc1nc([N+](=O)[O-])c(N2CCN(Cc3cn(Cc4ccc(Br)cc4)nn3)CC2)n1Cc1ccccc1 [Compound 9b, 1-(N1-benzyl-2-methyl-4-nitro-imidazole-5-yl)-4-((N1-(4-bromobenzyl)-1H-1,2,3-triazol-4-yl)methyl)piperazine] | 79 ± 21 | – | – | > 500 | – | –
Cc1nc([N+](=O)[O-])c(N2CCN(Cc3cn(Cc4ccc(F)cc4)nn3)CC2)n1Cc1ccccc1 [Compound 9c, 1-(N1-benzyl-2-methyl-4-nitro-imidazole-5-yl)-4-((N1-(4-fluorobenzyl)-1H-1,2,3-triazol-4-yl)methyl)piperazine] | 24 ± 1.9 | > 500 | > 500 | > 500 | – | –
Cc1nc([N+](=O)[O-])c(N2CCN(Cc3cn(Cc4cccc([N+](=O)[O-])c4)nn3)CC2)n1Cc1ccccc1 [Compound 9d, 1-(N1-benzyl-2-methyl-4-nitro-imidazole-5-yl)-4-((N1-(3-nitrobenzyl)-1H-1,2,3-triazol-4-yl)methyl)piperazine] | 40 ± 15 | – | – | – | – | –
Cc1cccc(Cn2cc(CN3CCN(c4c([N+](=O)[O-])nc(C)n4Cc4ccccc4)CC3)nn2)c1 [Compound 9e, 1-(N1-benzyl-2-methyl-4-nitro-imidazole-5-yl)-4-((N1-(3-methylbenzyl)-1H-1,2,3-triazol-4-yl)methyl)piperazine] | 79 ± 21 | > 500 | > 500 | > 500 | – | –
Cc1nc([N+](=O)[O-])c(N2CCN(Cc3cn(Cc4cccc(Br)c4)nn3)CC2)n1Cc1ccccc1 [Compound 9f, 1-(N1-benzyl-2-methyl-4-nitro-imidazole-5-yl)-4-((N1-(3-bromobenzyl)-1H-1,2,3-triazol-4-yl)methyl)piperazine] | 53 ± 60 | – | – | – | – | –
Cc1nc([N+](=O)[O-])c(N2CCN(Cc3cn(Cc4ccccc4[N+](=O)[O-])nn3)CC2)n1Cc1ccccc1 [Compound 9h, 1-(N1-benzyl-2-methyl-4-nitro-imidazole-5-yl)-4-((N1-(2-nitrobenzyl)-1H-1,2,3-triazol-4-yl)methyl)piperazine] | 48 ± 4 | – | – | > 500 | – | –
Cc1nc([N+](=O)[O-])c(N2CCN(Cc3cn(Cc4ccccc4Br)nn3)CC2)n1Cc1ccccc1 [Compound 9i, 1-(N1-benzyl-2-methyl-4-nitro-imidazole-5-yl)-4-((N1-(2-bromobenzyl)-1H-1,2,3-triazol-4-yl)methyl)piperazine] | 106 ± 12.3 | > 500 | > 500 | > 500 | – | –
Cc1nc([N+](=O)[O-])c(N2CCN(Cc3cn(Cc4ccccc4F)nn3)CC2)n1Cc1ccccc1 [Compound 9j, 1-(N1-benzyl-2-methyl-4-nitro-imidazole-5-yl)-4-((N1-(2-fluorobenzyl)-1H-1,2,3-triazol-4-yl)methyl)piperazine] | 151 ± 20 | > 500 | > 500 | > 500 | – | –
Cc1nc([N+](=O)[O-])c(N2CCN(Cc3cn(CC(=O)c4ccccc4)nn3)CC2)n1Cc1ccccc1 [Compound 10a, 2-(4-((4-(1-benzyl-2-methyl-4-nitro-1H-imidazole-5-yl)piperazin-1-yl)methyl)-1H-1,2,3-triazol-1-yl)-1-phenylethanone] | 112 ± 30 | – | – | – | 3.16 ± 0.03 | 1.15 ± 0.5
Cc1cccc(-n2cc(CN3CCN(c4c([N+](=O)[O-])nc(C)n4Cc4ccccc4)CC3)nn2)c1 [Compound 11 m, 1-(N1-benzyl-2-methyl-4-nitro-1H-imidazole-5-yl)-4-((N1-(m-tolyl)-1H-1,2,3-triazol-4-yl)methyl)piperazine] | 161 ± 16 | > 500 | > 500 | > 500 | – | –
Cc1nc([N+](=O)[O-])c(N2CCN(Cc3cn(-c4ccc(Br)cc4)nn3)CC2)n1Cc1ccccc1 [Compound 11a, 1-(N1-benzyl-2-methyl-4-nitro-1H-imidazole-5-yl)-4-((N1-(4-bromophenyl)-1H-1,2,3-triazol-4-yl)methyl)piperazine] | – | > 500 | > 500 | > 500 | – | –
CSc1ccccc1-n1cc(CN2CCN(c3c([N+](=O)[O-])nc(C)n3Cc3ccccc3)CC2)nn1 [Compound 11b, 1-(N1-benzyl-2-methyl-4-nitro-1H-imidazole-5-yl)-4-((N1-(2-(methylthio)phenyl)-1H-1,2,3-triazol-4-yl)methyl)piperazine] | 136 ± 60 | – | – | – | – | –
CCOc1ccccc1-n1cc(CN2CCN(c3c([N+](=O)[O-])nc(C)n3Cc3ccccc3)CC2)nn1 [Compound 11c, 1-(N1-benzyl-2-methyl-4-nitro-1H-imidazole-5-yl)-4-((N1-(2-ethoxyphenyl)-1H-1,2,3-triazol-4-yl)methyl)piperazine] | 399 ± 79 | – | – | – | – | –
Cc1nc([N+](=O)[O-])c(N2CCN(Cc3cn(-c4ccccc4)nn3)CC2)n1Cc1ccccc1 [Compound 11d, 1-(N1-benzyl-2-methyl-4-nitro-1H-imidazole-5-yl)-4-((N1-phenyl-1H-1,2,3-triazol-4-yl)methyl)piperazine] | 312 ± 65 | – | – | – | – | –
Cc1ccc(-n2cc(CN3CCN(c4c([N+](=O)[O-])nc(C)n4Cc4ccccc4)CC3)nn2)cc1 [Compound 11e, 1-(N1-benzyl-2-methyl-4-nitro-1H-imidazole-5-yl)-4-((N1-(p-tolyl)-1H-1,2,3-triazol-4-yl)methyl)piperazine] | 219 ± 12 | – | – | – | – | –
COc1ccc(-n2cc(CN3CCN(c4c([N+](=O)[O-])nc(C)n4Cc4ccccc4)CC3)nn2)cc1 [Compound 11f, 1-(N1-benzyl-2-methyl-4-nitro-1H-imidazole-5-yl)-4-((N1-(4-methoxyphenyl)-1H-1,2,3-triazol-4-yl)methyl)piperazine] | 251 ± 71 | – | – | > 500 | – | –
Cc1ccccc1-n1cc(CN2CCN(c3c([N+](=O)[O-])nc(C)n3Cc3ccccc3)CC2)nn1 [Compound 11g, 1-(N1-benzyl-2-methyl-4-nitro-1H-imidazole-5-yl)-4-((N1-(o-tolyl)-1H-1,2,3-triazol-4-yl)methyl)piperazine] | 183 ± 10 | – | – | – | – | –
CCc1ccccc1-n1cc(CN2CCN(c3c([N+](=O)[O-])nc(C)n3Cc3ccccc3)CC2)nn1 [Compound 11h, 1-(N1-benzyl-2-methyl-4-nitro-1H-imidazole-5-yl)-4-((N1-(2-ethylphenyl)-1H-1,2,3-triazol-4-yl)methyl)piperazine] | 88 ± 37 | – | – | – | – | –
Cc1nc([N+](=O)[O-])c(N2CCN(Cc3cn(-c4ccccc4[N+](=O)[O-])nn3)CC2)n1Cc1ccccc1 [Compound 11i, 1-(N1-benzyl-2-methyl-4-nitro-1H-imidazole-5-yl)-4-((N1-(2-nitrophenyl)-1H-1,2,3-triazol-4-yl)methyl)piperazine] | 185 ± 33 | – | – | > 500 | – | –
Cc1nc([N+](=O)[O-])c(N2CCN(Cc3cn(-c4ccc(Cl)cc4)nn3)CC2)n1Cc1ccccc1 [Compound 11j, 1-(N1-benzyl-2-methyl-4-nitro-1H-imidazole-5-yl)-4-((N1-(4-chlorophenyl)-1H-1,2,3-triazol-4-yl)methyl)piperazine] | 279 ± 20 | > 500 | > 500 | > 500 | – | –
Cc1nc([N+](=O)[O-])c(N2CCN(Cc3cn(-c4ccc([N+](=O)[O-])cc4)nn3)CC2)n1Cc1ccccc1 [Compound 11k, 1-(N1-benzyl-2-methyl-4-nitro-1H-imidazole-5-yl)-4-((N1-(4-nitrophenyl)-1H-1,2,3-triazol-4-yl)methyl)piperazine] | 671 ± 140 | – | – | – | – | –
COc1cccc(-n2cc(CN3CCN(c4c([N+](=O)[O-])nc(C)n4Cc4ccccc4)CC3)nn2)c1 [Compound 11l, 1-(N1-benzyl-2-methyl-4-nitro-1H-imidazole-5-yl)-4-((N1-(3-methoxyphenyl)-1H-1,2,3-triazol-4-yl)methyl)piperazine] | 198 ± 10 | – | – | – | – | –
Cc1nc([N+](=O)[O-])c(N2CCN(Cc3cn(-c4cccc(Cl)c4)nn3)CC2)n1Cc1ccccc1 [Compound 11n, 1-(N1-benzyl-2-methyl-4-nitro-1H-imidazole-5-yl)-4-((N1-(3-chlorophenyl)-1H-1,2,3-triazol-4-yl)methyl)piperazine] | 155 ± 70 | – | – | > 500 | – | –
Cc1nc([N+](=O)[O-])c(N2CCN(Cc3cn(-c4cccc5c4CCCC5)nn3)CC2)n1Cc1ccccc1 [Compound 11o, 1-(N1-benzyl-2-methyl-4-nitro-1H-imidazole-5-yl)-4-((N1-(5,6,7,8-tetrahydronaphthalen-1-yl)-1H-1,2,3-triazol-4-yl)methyl)piperazine] | 131 ± 30 | – | > 500 | > 500 | – | –
Cc1nc([N+](=O)[O-])c(N2CCN(Cc3cn(-c4cccc5ccccc45)nn3)CC2)n1Cc1ccccc1 [Compound 11q, 1-(N1-benzyl-2-methyl-4-nitro-1H-imidazole-5-yl)-4-((N1-(naphthalen-1-yl)-1H-1,2,3-triazol-4-yl)methyl)piperazine] | 270 ± 40 | – | – | – | – | –
